According to patent US12427212B2, “Nectin-4 binding miniproteins, conjugates and uses thereof” (Aktis Oncology, Inc., priority 2023, dated 2025):
Entries after “also recorded” stand apart in the source; their conditions may differ. Bridges are numbered along the chain shown (N, C = ends). Primed or numbered codes have the meaning given here. [ ]: non-standard residue; d: D form. The star is where a group is joined. DOTA = O=C(O)CN1CCN(CC(=O)O)CCN(CC(=O)*)CCN(CC(=O)O)CC1; Lys(Me3) = C[N+](C)(C)CCCC[C@H](N)C(=O)O; Cit = NC(=O)NCCC[C@H](N)C(=O)O; PEG4 = NCCOCCOCCOCCOCCC(=O)O; PEG4′ = not defined here

Tests used:
[1] = molecular target: T1, Nectin-4 (Homo sapiens, UniProt Q96NY8); experiment: DELFIA competitive binding assay (Ki) against Eu-labeled C307 on HT-1376 cells; conditions: in the presence of europium-labeled C307
T1 sequence (Q96NY8 32-510): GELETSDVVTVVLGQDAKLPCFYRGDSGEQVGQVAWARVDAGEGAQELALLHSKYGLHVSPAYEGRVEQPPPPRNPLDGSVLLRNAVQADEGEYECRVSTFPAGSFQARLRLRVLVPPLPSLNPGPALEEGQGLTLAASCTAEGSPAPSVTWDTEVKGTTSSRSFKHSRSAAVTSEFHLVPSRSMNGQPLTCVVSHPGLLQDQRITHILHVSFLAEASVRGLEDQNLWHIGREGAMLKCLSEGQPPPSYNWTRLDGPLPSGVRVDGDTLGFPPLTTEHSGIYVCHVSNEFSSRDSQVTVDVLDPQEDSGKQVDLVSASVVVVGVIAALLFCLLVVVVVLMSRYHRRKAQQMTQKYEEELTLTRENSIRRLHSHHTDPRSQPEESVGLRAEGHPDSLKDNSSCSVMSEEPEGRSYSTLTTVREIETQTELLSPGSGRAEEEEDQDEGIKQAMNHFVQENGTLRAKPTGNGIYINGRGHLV
Experimental: A competition binding assay was utilized to determine the Ki for miniproteins bound to Nectin-4 expressed on the surface of cancer cells. […] Miniprotein incubations occurred for 90 min to reach binding equilibrium. […] After miniprotein incubations, the wells were washed to remove unbound ligand and treated according to manufacturer instructions for a DELFIA® (dissociation-enhanced lanthanide fluorescent immunoassay, Revvity Health Sciences). In brief, washed wells were incubated with 15 μL of 2 M HCl for 2 h at 37° C., after which 17 μL of 2 M NaOH and 30 μL of DELFIA® enhancement solution were added to each well and incubated for an additional 30 min. The remaining Eu reacted with the DELFIA® enhancer solution to generate fluorescence measured on the Envision instrument. Relative fluorescence units (RFUs) were measured as a function of test article concentration in order to calculate an IC50.
A whole cell binding assay was used to estimate the equilibrium binding affinity (KD) or binding inhibition constant (Ki) of miniprotein ligands to cells expressing a target of interest. Cells were dispensed into a 384-well plate and incubated at 37° C., in 5% CO2 overnight. The next day cells were gently washed once in assay buffer prior to addition of europium chelated ligand. […] For Ki determination, a single concentration (KD equivalent concentration) of europium-chelate miniprotein was added to each well followed immediately by the addition of unconjugated competing ligand over 12 different concentrations ranging from 100 times below and above expected Ki values as before. The plate was incubated for 1.5 h at room temperature to reach binding equilibrium. Cells were then washed three times at room temperature with 1×PBS followed by the addition of 2 M HCl and incubated for two h at 37° C. Following this step, 2 M NaOH and fluorescent inducer solution were added to each well and incubated for 30 minutes at room temperature according to the manufacturer's protocol (Perkin-ELMER DELFIA assay). Plates were read on an Envision plate reader and a curve-fitting model was applied to estimate KD and Ki values using GraphPad Prism software.
Engineered Nectin-4 miniproteins with further modified lysine residues (C298-C304; as described in Example 4B) were evaluated for their ability to bind to Nectin-4.

[2] = molecular target: T1, Nectin-4; experiment: Flow cytometry binding to Nectin-4-expressing (HT-1376-P) and knockout (HT-1376-KO) cells; assay type: cell-based; conditions: biotinylated miniprotein
Experimental: Fluorescent imaging for Nectin-4 binding was conducted using assays as described in Example 3. Briefly. Nectin-4 knockout HT-1376 cells were generated via CRISPR/Cas9 mediated gene deletion followed by single cell cloning. […] Flow cytometry was performed to measure on-target binding to cell surface Nectin-4.

[3] = test system: un-transfected HEK293 cells; experiment: Background binding to un-transfected HEK293 cells (cell microarray suitability); assay type: cell-based, human; conditions: biotin-labeled molecules
Experimental: To evaluate potential off-target binding, six biotin-labeled molecules were tested in a cell microarray platform having 6,416 different human proteins spanning diverse functions and subcellular locations.

[4] = test system: HT-1376 cells; experiment: Internalization assay of indium-111 radiolabeled conjugate, HT-1376; assay type: cell-based, human; conditions: 37° C. or 4° C., 1 h
Experimental: (§1) Internalization was assessed for indium-111 radiolabeled C215 in HT-1376 and MCF7 cells. Cells were incubated in the presence of radioligand or radioligand plus 1000 times excess unlabeled compound (C215) at 37° C., or 4° C. for 1 h. At the end of incubation cells were washed four times with PBS and membrane bound radioligand was removed by three 0.5% trypsin washes. Cell suspensions were washed three times by method of centrifugation and removal of supernatant. Internalized radioactivity was measured by gamma counting cell pellets and cell number was determined by counting cells on an automatic cell counter. […] C215, in HT-1376 (FIG. 6A) and MCF7 cell lines (FIG. 6B).

[5] = test system: MCF7 cells; experiment: Internalization assay of indium-111 radiolabeled conjugate, MCF7; assay type: cell-based, human; conditions: 37° C. or 4° C., 1 h
Experimental: as §1

[6] = test system: HT-1376 urothelial cancer cells; experiment: In vitro cell cytotoxicity assay of 225Ac-radioconjugates (CellTiter-Glo); assay type: cell-based, human; conditions: compound radiolabeled with 225Ac, 24 h treatment, 4-5 day regrowth, HT-1376 cells
Experimental: Cytotoxicity to ^225Ac-radioconjugates was assessed in HT-1376 urothelial cancer cells. Cells were seeded in 96-well plates at densities of 250 to 1000 cells per well two days prior to treatment. On the day of treatment ^225Ac-radioconjugates were diluted in culture medium to concentrations ranging from 0,0001 to 100 μCi/mL and treatment solutions were incubated with cells for 24 h. At the end of the treatment period, the treatment solution was removed, and fresh culture medium was replenished for the regrowth period of the assay that lasted 4-5 day's. At the end of the regrowth period the culture medium was removed and viability was assessed by CellTiter-Glo (Promega, Waltham MA) luminescent assay and the plates were read on a Perkin Elmer Enspire multimode plate reader. Data were normalized to treatment controls and plotted as non-linear sigmoidal dose response curves to determine the effective concentration for 50% reduction in cell viability.

[7] = Thermal stability assay, 75° C., HPLC; assay type: physicochemical; conditions: 1 mg/mL, 0.9% saline solution
Experimental: The thermal stability of an exemplary compound, C215, was analyzed at a concentration of 1 mg/mL at 75° C., in 0.9% saline solution. A heating plate was set to 75° C. and the sample was heated for a period of one h. The vial was shaken prior to collecting 10 μL aliquots at 5, 10, 15, 30, and 60 minute time intervals. The % parent remaining was analyzed by HPLC using the following system and method: Analytical Agilent 1100 HPLC system using a 4.6×250 mm, 300 Angstrom. BEH300, 5 μm, Xbridge C18 column at 1.0 mL/min. The solvent system consisted of A=Water+0.1% TFA, B=Acetonitrile+0.1% TFA. The gradient consisted of 5% to 70% B over 15 minutes, then the column was washed and equilibrated to initial conditions.

[8] = In vivo biodistribution of 111In-labeled miniproteins by SPECT/CT, HT-1376 xenograft; parameters: species or system mouse; conditions: female, athymic nude, mouse, in vivo
In short: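 Uptake in % ID/g from maximum intensity projections of SPECT/CT scans, with SPECT in activity units and CT windowed −500 to 4500 HU. Animals carried HT-1376 tumors, a human Nectin-4-expressing line, and were dosed with 111In-labeled miniproteins.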

[9] = In vitro metabolic stability in serum/plasma (percent parent remaining, LC-MS); assay type: in vitro ADME; conditions: mouse
Experimental: Exemplary miniproteins were spiked into biological matrices at initial concentration between 1-2 μM. Tested matrices were varied by species (mouse, rat, human) and type (plasma, serum, and kidney brush border membrane (kBBM) preparations tested each from 0.625-100 μg/mL protein content). Tested conditions were incubated with miniproteins at 37° C. for 4 h. At collection points of 0, 15, 30, 60, 120, 240 minutes, 50 μL of each condition were quenched by organic solvent (methanol or acetonitrile) or the addition of 4% phosphoric acid solution followed by solid-phase extraction. Fractions of each quenched timepoint were subsequently assayed for parent miniproteins concentration by high resolution LC-MS. Percent-parent-remaining-time plots were constructed from the ratio of each given time collection to the time-zero parent miniprotein. Percent-parent-remaining in mouse serum and plasma for exemplary miniproteins are recorded in TABLE 11.

[10] = Biodistribution of radiolabeled miniprotein conjugates by SPECT/CT, HT-1376-OE xenograft; conditions: female, mouse, in vivo, iv, Kidneys; for tissue uptake at 4 h: 4 h (% ID/g) Average; for tissue uptake at 22 h: 22 h (% ID/g) Average
Experimental: 6-8 week old female mice were engrafted through subcutaneous injection with cultured 3.0×10^6 HT-1376-OE cells (1:1—Cells:Matrigel). HT-1376-OE is a model cell line that highly expresses Nectin-4. Fourteen (14) days later, the mice were each dosed with a radiolabeled miniprotein, for example at a dose of ˜350 μCi/3.5 μg miniprotein. SPECT and/or CT imaging of the mice was done at timepoints between 15 min to 24 h after the administration of the injected dose, such as 4 h and 22 h (static scanning). Initial SPECT and/or CT rapid dynamic scanning was done at time points between 15 min and 75 min after the administration of the injected dose. For each miniprotein tested, a group of three mice were used, as summarized below in TABLE 16A.

Compound | binding to endogenous Nectin-4 expressed on HT-1376 cells (FIG. 21) [1] | on-target binding to cell surface Nectin-4, HT-1376-P versus HT-1376-KO cells [2] | Background binding to un-transfected HEK293 cells [3] | internalization of radioconjugate [4] | internalization of radioconjugate [5] | EC50 (microcurie/milliliter) for 225Ac radioconjugates [6] [microcurie/milliliter] | thermal stability, % parent remaining [7] | tissue uptake at 4 h [8] [%ID/g] | tissue uptake at 24 h [8] [%ID/g] | half-life [9] [min] | half-life ([9]; plasma) [min] | tissue uptake at 4 h [10] [%ID/g] | tissue uptake at 22 h [10] [%ID/g]
CC[C@H](C)[C@@H]1NC(=O)[C@H](Cc2ccc(O)cc2)NC(=O)[C@H](CCC(N)=O)NC(=O)[C@@H]2CSSC[C@@H](C(=O)N[C@@H](CO)C(=O)O)NC(=O)CNC(=O)[C@H](CC(C)C)NC(=O)[C@H](CC(N)=O)NC(=O)[C@H](CC(=O)O)NC(=O)[C@H](CC(C)C)NC(=O)[C@H]([C@@H](C)CC)NC(=O)[C@H](CCC(=O)O)NC(=O)[C@H](CCC(=O)O)NC(=O)[C@H]([C@@H](C)CC)NC(=O)[C@H](CSSC[C@H](NC(=O)CCOCCOCCOCCOCCNC(=O)CCCC[C@@H]3SC[C@@H]4NC(=O)N[C@@H]43)C(=O)N[C@@H](CCC(=O)O)C(=O)N[C@@H](Cc3ccc(O)cc3)C(=O)N[C@@H](CC(=O)O)C(=O)N[C@@H](CCC(=O)O)C(=O)N[C@@H](CCC(=O)O)C(=O)N[C@@H](Cc3ccccc3)C(=O)N[C@@H](Cc3ccccc3)C(=O)N[C@@H]([C@@H](C)O)C(=O)N[C@@H](C)C(=O)N[C@@H](CC(C)C)C(=O)N[C@@H](C)C(=O)N[C@@H](CCCNC(=N)N)C(=O)N[C@@H](CC(C)C)C(=O)N[C@@H](CCCNC(=N)N)C(=O)NCC(=O)NCC(=O)N[C@@H](CC(=O)O)C(=O)N[C@@H]([C@@H](C)CC)C(=O)N2)NC(=O)[C@H](CC(C)C)NC(=O)[C@H](C)NC(=O)[C@@H]2CCCN2C(=O)[C@H](CC(C)C)NC(=O)[C@H](Cc2ccc(O)cc2)NC(=O)[C@H](CCC(N)=O)NC(=O)[C@H](Cc2ccccc2)NC(=O)[C@H](CCCC[N+](C)(C)C)NC(=O)[C@H](C)NC(=O)[C@H](CCC(N)=O)NC1=O [Compound C253] | high binding affinity | potent and highly selective Nectin-4 targeting agent; also recorded: selective target binding | low-background binding | – | – | – | – | – | – | – | – | – | –
C215 ({DOTA-PEG4′}-CEYDEEFFTALKRLRGGDICYYIKKKFKKVPKLCIEEILDKLGC-NH2; cysteine pairing not given here) [Compound C215] | – | – | – | successfully internalized into cells | successfully internalized into cells | 0.086 | remain stable over 60 min | – | – | – | – | – | –
{DOTA-PEG4}-CDYDEQFFTALA[Cit]LRGGDICEYIQA[Lys(Me3)]FQYLPGLCIEEILDNLGCS-OH (disulfide 1-34, 20-44 (inferred)) [Compound C260] | – | – | – | – | – | – | – | 12.8 | 7.36 | 672 | > 720 | 11.6 | 6.92
{DOTA-PEG4}-CEYDEEFFTALARLRGGDICQYIQAKFQYLPGQCIEEILDNLGCS-OH (disulfide 1-34, 20-44) [Compound C244] | – | – | – | – | – | – | – | 27.7 | 15.9 | > 720 | > 720 | 29.5 | 17.8
